Reference: US8431704B2, “Quinoline or isoquinoline substituted P2X7 antagonists” (Janssen Pharmaceutica NV, priority 2008, dated 2013)

molecular target: T1, P2X7 (Homo sapiens, UniProt Q99572); assay: THP-1 YoPro uptake assay (BzATP-stimulated Yo-Pro-1 uptake); assay type: cell-based; conditions: Table F-10, THP-1 cells, read-out: mean pIC50 values for P2X7 antagonism (converted)
T1 construct: endogenous in cells; host or cells: THP-1 human monocytic cell line
T1 sequence (Q99572 1-595): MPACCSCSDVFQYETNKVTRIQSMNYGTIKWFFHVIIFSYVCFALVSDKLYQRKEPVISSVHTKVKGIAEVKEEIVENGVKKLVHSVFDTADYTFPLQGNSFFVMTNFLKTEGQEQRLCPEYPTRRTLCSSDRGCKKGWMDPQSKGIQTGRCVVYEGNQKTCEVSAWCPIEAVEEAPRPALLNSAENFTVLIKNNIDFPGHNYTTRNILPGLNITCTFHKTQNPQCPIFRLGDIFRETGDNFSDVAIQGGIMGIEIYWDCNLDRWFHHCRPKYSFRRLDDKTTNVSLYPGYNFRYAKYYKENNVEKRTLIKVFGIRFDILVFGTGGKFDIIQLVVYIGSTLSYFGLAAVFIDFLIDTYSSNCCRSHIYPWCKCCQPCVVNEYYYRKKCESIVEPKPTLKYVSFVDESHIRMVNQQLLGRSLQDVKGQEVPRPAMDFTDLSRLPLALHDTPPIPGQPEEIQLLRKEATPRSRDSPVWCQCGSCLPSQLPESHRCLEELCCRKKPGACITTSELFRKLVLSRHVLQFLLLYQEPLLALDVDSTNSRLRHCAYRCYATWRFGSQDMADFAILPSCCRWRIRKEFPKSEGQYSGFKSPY
Experimental: The human monocytic cell line THP-1 was grown as a suspension culture in RPMI medium supplemented with 10% fetal bovine serum, penicillin/streptomycin (50 units/mL), 2 mM L-glutamine, and 20 μM 2-mercaptoethanol. Cells were maintained at a density below 0.5 million per mL. On the day of the assay, cells were washed twice with assay buffer, and then resuspended at 2 million per mL in assay buffer containing 2 μM Yo-Pro-1 (Invitrogen). The assay buffer contained (in mM): 280 sucrose, 5 KCl, 10 glucose, 10 HEPES, 5 N-methyl-D-glucamine. The cells were added at 200 k/well into poly-D-lysine-coated black-walled 96-well plates (Biocoat, Becton-Dickinson). Test compounds were dissolved in DMSO, and then added at the test concentration to each well of the 96-well plate. Concentration dependence of block was determined by exposing each well of cells in duplicate rows of a 96-well plate to a serial dilution of test compound. The concentration series usually started at 10 μM with a three-fold decrement in concentration. The final DMSO concentration seen by the cells was less than 0.5%. Cells were incubated with test compounds for 30 minutes at 37° C. A background reading was taken using a Gemini SpectraMax with 490 nm excitation and 530 nm emission. […] After incubation for 60 minutes at 37° C., an endpoint read was taken in the SpectraMax plate reader. The amount of block of the response was determined by comparing the fluorescence intensity in each well to the average of control wells on each plate. The control wells contained either a known antagonist of P2X7 (positive controls) or a concentration of DMSO equal to that in the test wells. Data were analyzed using a nonlinear regression program (Origin, OriginLab, MA). Results are reported as the −log of the IC50 (pIC50).

| IC50 | Structure (SMILES) |
| --- | --- |
| 6.61 nM | CC(C)Nc1ccc2c(C(=O)NCC(c3cnc(C(F)(F)F)nc3)N3CCOCC3)c(Cl)ccc2n1 (stereo not drawn) [Compound 496] |
| 6.17 nM | O=C(NCC(c1cnc(C(F)(F)F)nc1)N1CCOCC1)c1c(Cl)ccc2nc(NCC3CC3)ccc12 (stereo not drawn) [Compound 497] |
| 9.12 nM | O=C(NCC(c1cnc(C(F)(F)F)nc1)N1CCOCC1)c1c(Cl)ccc2nc(NCCO)ccc12 (stereo not drawn) [Compound 498] |
| 20.9 nM | O=C(NCC(c1cnc(C(F)(F)F)nc1)N1CCOCC1)c1c(Cl)ccc2nc(N3CC[C@@H](O)C3)ccc12 (stereo partly drawn) [Compound 499] |
| 10.2 nM | CNc1ccc2c(C(=O)NCC(c3cnc(C(F)(F)F)nc3)N3CCOCC3)c(Cl)ccc2n1 (stereo not drawn) [Compound 500] |
| 10.2 nM | O=C(NCC(c1cnc(C(F)(F)F)nc1)N1CCOCC1)c1c(Cl)ccc2nc(NC3CC3)ccc12 (stereo not drawn) [Compound 501] |
| 13.8 nM | O=C(NCC(c1cnc(C(F)(F)F)nc1)N1CCOCC1)c1c(Cl)ccc2nc(N3CCOCC3)ccc12 (stereo not drawn) [Compound 502] |
| 37.2 nM | C[C@@H]1CN(c2ccc3c(C(=O)NCC(c4cnc(C(F)(F)F)nc4)N4CCOCC4)c(Cl)ccc3n2)C[C@H](C)O1 (stereo partly drawn) [Compound 503] |
| 6.92 nM | O=C(NCC(c1cnc(C(F)(F)F)nc1)N1CCOCC1)c1c(Cl)ccc2nc(N3CCNCC3)ccc12 (stereo not drawn) [Compound 504] |
| 5.13 nM | CN1CCN(c2ccc3c(C(=O)NCC(c4cnc(C(F)(F)F)nc4)N4CCOCC4)c(Cl)ccc3n2)CC1 (stereo not drawn) [Compound 505] |
| 18.2 nM | O=C(NCC(c1cnc(C(F)(F)F)nc1)N1CCOCC1)c1c(Cl)ccc2nc(N3CC[C@H](O)C3)ccc12 (stereo partly drawn) [Compound 506] |
| 13.5 nM | O=C(NCC(c1cnc(C(F)(F)F)nc1)N1CCC(F)(F)CC1)c1c(Cl)ccc2nc(NCC3CC3)ccc12 (stereo not drawn) [Compound 507] |
| 25.7 nM | O=C(NCC(c1cnc(C(F)(F)F)nc1)N1CCC(F)(F)CC1)c1c(Cl)ccc2nc(NCC(O)CO)ccc12 (stereo not drawn) [Compound 508] |
| 17.8 nM | O=C(NCC(c1cnc(C(F)(F)F)nc1)N1CCC(F)(F)CC1)c1c(Cl)ccc2nc(N3CC(O)(C(F)(F)F)C3)ccc12 (stereo not drawn) [Compound 509] |
| 3.47 nM | O=C(NCC(c1cnc(C(F)(F)F)nc1)N1CCC(F)(F)CC1)c1c(Cl)ccc2nc(N3CC(CO)C3)ccc12 (stereo not drawn) [Compound 510] |
| 4.79 nM | CN(CCN)c1ccc2c(C(=O)NCC(c3cnc(C(F)(F)F)nc3)N3CCC(F)(F)CC3)c(Cl)ccc2n1 (stereo not drawn) [Compound 511] |
| 5.37 nM | NC1CN(c2ccc3c(C(=O)NCC(c4cnc(C(F)(F)F)nc4)N4CCOCC4)c(Cl)ccc3n2)C1 (stereo not drawn) [Compound 512] |
| 5.13 nM | O=C(NCC(c1cnc(C(F)(F)F)nc1)N1CCC(F)(F)CC1)c1c(Cl)ccc2nc(NCCN3CCOCC3)ccc12 (stereo not drawn) [Compound 513] |
| 7.59 nM | O=C(NCC(c1cnc(C(F)(F)F)nc1)N1CCOCC1)c1c(Cl)ccc2nc(NCCNCCO)ccc12 (stereo not drawn) [Compound 514] |
| 5.62 nM | O=C(NCC(c1cnc(C(F)(F)F)nc1)N1CCC(F)(F)CC1)c1c(Cl)ccc2nc(N3CCC(c4n[nH]c(=O)[nH]4)CC3)ccc12 (stereo not drawn) [Compound 515] |
| 9.77 nM | CC1(O)CCN(c2ccc3c(C(=O)NCC(c4cnc(C(F)(F)F)nc4)N4CCOCC4)c(Cl)ccc3n2)CC1 (stereo not drawn) [Compound 516] |
| 8.51 nM | CNCCN(C)c1ccc2c(C(=O)NCC(c3cnc(C(F)(F)F)nc3)N3CCC(F)(F)CC3)c(Cl)ccc2n1 (stereo not drawn) [Compound 517] |
| 10.2 nM | O=C(NCC(c1cnc(C(F)(F)F)nc1)N1CCC(F)(F)CC1)c1c(Cl)ccc2nc(N3CCC(n4cn[nH]c4=O)CC3)ccc12 (stereo not drawn) [Compound 518] |
| 7.08 nM | O=C(NCC(c1cnc(C(F)(F)F)nc1)N1CCOCC1)c1c(Cl)ccc2nc(N3CCC4(CCCN4)C3)ccc12 (stereo not drawn) [Compound 519] |

| IC50 | Structure (SMILES) |
| --- | --- |
| 9.55 nM | O=C(NCC(c1cnc(C(F)(F)F)nc1)N1CCOCC1)c1c(Cl)ccc2nc(N3CCC4(CCCCN4)C3)ccc12 (stereo not drawn) [Compound 520] |
| 13.8 nM | NCC1CCN(c2ccc3c(C(=O)NCC(c4cnc(C(F)(F)F)nc4)N4CCOCC4)c(Cl)ccc3n2)CC1 (stereo not drawn) [Compound 521] |
| 24.5 nM | CNC1CN(c2ccc3c(C(=O)NCC(c4cnc(C(F)(F)F)nc4)N4CCOCC4)c(Cl)ccc3n2)C1 (stereo not drawn) [Compound 522] |
| 15.8 nM | CN(CCN)c1ccc2c(C(=O)NCC(c3cnc(C(F)(F)F)nc3)N3CCOCC3)c(Cl)ccc2n1 (stereo not drawn) [Compound 523] |
| 30.2 nM | O=C(NCC(c1cnc(C(F)(F)F)nc1)N1CCOCC1)c1c(Cl)ccc2nc(N3CC4(CNC4)C3)ccc12 (stereo not drawn) [Compound 524] |
| 52.5 nM | O=C(NCC(c1cnc(C(F)(F)F)nc1)N1CCOCC1)c1c(Cl)ccc2nc(N3CC4COCC4C3)ccc12 (stereo not drawn) [Compound 525] |
| 56.2 nM | O=C(NCC(c1cnc(C(F)(F)F)nc1)N1CCOCC1)c1c(Cl)ccc2nc(N3C[C@@H]4C[C@H]3CO4)ccc12 (stereo partly drawn) [Compound 526] |
| 77.6 nM | O=C(NCC(c1cnc(C(F)(F)F)nc1)N1CCOCC1)c1c(Cl)ccc2nc(NCC3CCOCC3)ccc12 (stereo not drawn) [Compound 527] |
| 4.57 nM | NCC1CCN(c2ccc3c(C(=O)NCC(c4cnc(C(F)(F)F)nc4)N4CCC(F)(F)CC4)c(Cl)ccc3n2)CC1 (stereo not drawn) [Compound 528] |
| 5.62 nM | O=C(NCC(c1cnc(C(F)(F)F)nc1)N1CCC(F)(F)CC1)c1c(Cl)ccc2nc(N3CCC4(CCCCN4)C3)ccc12 (stereo not drawn) [Compound 529] |
| 2.63 nM | O=C(NCC(c1cnc(C(F)(F)F)nc1)N1CCC(F)(F)CC1)c1c(Cl)ccc2nc(N3C[C@@H]4C[C@H]3CO4)ccc12 (stereo partly drawn) [Compound 530] |
| 3.02 nM | O=C(NCC(c1cnc(C(F)(F)F)nc1)N1CCC(F)(F)CC1)c1c(Cl)ccc2nc(N3CCC4(CCCN4)C3)ccc12 (stereo not drawn) [Compound 531] |
| 1.45 nM | NCCNc1ccc2c(C(=O)NCC(c3cnc(C(F)(F)F)nc3)N3CCCCC3)c(Cl)ccc2n1 (stereo not drawn) [Compound 545] |
| 4.79 nM | O=C(NCC(c1cnc(C(F)(F)F)nc1)N1CCCCC1)c1c(Cl)ccc2nc(N3CCC(O)CC3)ccc12 (stereo not drawn) [Compound 546] |
| 3.47 nM | O=C(NCC(c1cnc(C(F)(F)F)nc1)N1CCCCC1)c1c(Cl)ccc2nc(NCCO)ccc12 (stereo not drawn) [Compound 547] |
| 1.91 nM | O=C(NCC(c1cnc(C(F)(F)F)nc1)N1CCCCC1)c1c(Cl)ccc2nc(N3CCOCC3)ccc12 (stereo not drawn) [Compound 548] |
| 3.39 nM | O=C(NCC(c1cnc(C(F)(F)F)nc1)N1CCCCC1)c1c(Cl)ccc2nc(N3CCNCC3)ccc12 (stereo not drawn) [Compound 549] |
| 2.34 nM | O=C(NCC(c1cnc(C(F)(F)F)nc1)N1CCCCC1)c1c(Cl)ccc2nc(NCC(O)CO)ccc12 (stereo not drawn) [Compound 550] |
| 14.8 nM | CS(=O)(=O)N[C@H]1CCN(c2ccc3c(C(=O)NCC(c4cnc(C(F)(F)F)nc4)N4CCOCC4)c(Cl)ccc3n2)C1 (stereo partly drawn) [Compound 551] |
| 17.8 nM | CS(=O)(=O)N[C@@H]1CCN(c2ccc3c(C(=O)NCC(c4cnc(C(F)(F)F)nc4)N4CCOCC4)c(Cl)ccc3n2)C1 (stereo partly drawn) [Compound 552] |
| 17.4 nM | CS(=O)(=O)NCCNc1ccc2c(C(=O)NCC(c3cnc(C(F)(F)F)nc3)N3CCOCC3)c(Cl)ccc2n1 (stereo not drawn) [Compound 553] |
| 12.6 nM | O=C(NCC(c1cnc(C(F)(F)F)nc1)N1CCOCC1)c1c(Cl)ccc2nc(NC3CCOCC3)ccc12 (stereo not drawn) [Compound 554] |
| 16.2 nM | CC(=O)NC1CC2CCC(C1)N2c1ccc2c(C(=O)NCC(c3cnc(C(F)(F)F)nc3)N3CCOCC3)c(Cl)ccc2n1 (stereo not drawn) [Compound 555] |
| 1.15 nM | CN[C@H]1CCN(c2ccc3c(C(=O)NCC(c4cnc(C(F)(F)F)nc4)N4CCOCC4)c(Cl)ccc3n2)C1 (stereo partly drawn) [Compound 556] |
